From publication PMC11960969, “Mdga2 deficiency leads to an aberrant activation of BDNF/TrkB signaling that underlies autism-relevant synaptic and behavioral changes in mice” (PLOS Biology, 2025)

Tested on: cell surface GluA1, GluN1
Assay: Cell surface biotinylation of GluA1 and GluN1 in hippocampal neurons
Assay type: cell-based, mouse
Conditions: 10 μM ANA-12, 24 h, 12 DIV
Method: ANA-12 was dissolved in saline containing 10% DMSO to a final concentration of 0.5 mg/kg and intraperitoneally administered into male mice. For chronic treatment, ANA-12 was administered to 3-week-old male mice at twice/week for 3 weeks until mice reached 6 weeks of age. For acute treatment, ANA-12 was administered to 4-week-old male mice for three consecutive days. For and cultured neurons, ANA-12 was suspended to a 10 mM concentration in DMSO and diluted 1:1,000 in solution. Final concentration for treatment is 10 µ M with 0.1% DMSO.
Supplementary file pbio.3003047.s005.tif: S5 Fig Pharmacological inhibition of […] improves social behaviors in Mdga2 ^+/− mice. (A, B) The miniature inhibitory postsynaptic currents (mIPSCs) of hippocampal neurons in treated Het mice and their wild-type (WT) littermates were recorded and their kinetics (rise time and decay) were quantified for comparison. n = 14 cells from 3 mice per group. (C, D) The miniature excitatory postsynaptic currents (mEPSCs) of hippocampal neurons in treated mice were recorded and their kinetics (rise time and decay) were quantified for comparison. n = 14 cells from 3 mice per group. (E) Representative traces of evoked NMDAR-mediated EPSCs and quantitative analysis of evoked NMDAR-mediated EPSC amplitude with increasing stimulus intensity. n = 20–23 cells from 3 mice per group. […]

Structure (SMILES): O=C(Nc1ccccc1C(=O)NC1CCCCNC1=O)c1cc2ccccc2s1 (stereo not shown) [ANA-12, reference compound]
- cell surface distribution of GluA1 in MDGA2-deficient vs WT neurons: became comparable between these neurons upon ANA-12 treatment
